Consider one molecule from patent US12662707B2, “MYC amplification drives resistance to pan-RAS inhibitors in pancreatic cancer” (The Trustees of Columbia University in the City of New York, priority 2024, dated 2026).

One data set deals with wild type RAS. Particulars: reference 14; cited from earlier work.
Another data set relates to CC3+ apoptotic cells. As to the kind of experiment: CC3 IHC in Capan-1 xenograft model (tumor, colon, skin). Format: in vivo, mouse. The protocol: Studies were terminated early if tumor burden reached humane endpoint. Body weights were collected twice a week during the study. Means±s.e.m were plotted in the waterfall plots. For the single-dose pharmacokinetic/pharmacodynamic (PK/PD) study, mice were randomized and assigned into groups (n=3-6/dose/timepoint). […] Sakura, 4583) solution or snap-frozen in LN2 for further analysis. Whole blood was transferred into K2EDTA Microtainer tubes (BD, 365974), incubated for 5 minutes and snap-frozen in LN2. To stain tissues collected from the Capan-1 xenograft model, a similar protocol was used with the following changes. Sections were stained using a Leica BOND automated staining system and primary antibodies were detected with the Leica BOND Polymer detection kit (3-P—PV6119). Stained slides were scanned and digitized with a 3DHistotech Pannoramic whole slide scanner at 20× magnification. Image analysis was performed using HALO software from Indica Labs.

For data set [1], the system named is KPCY-derived PDAC cell line (6499c4) allografts. Nature of the data set: KPCY 6499c4 syngeneic allograft studies. Format: in vivo, mouse. The protocol:
All murine allograft studies and procedures related to animal handling, care and treatment were conducted in compliance with all applicable regulations and guidelines of the Institutional Animal Care and Use Committee (IACUC). Female C57BL/6J (strain 000664) mice aged 6-8 weeks from the Jackson Laboratory (Bar Harbor, ME USA) were used for these studies.
In order to generate subcutaneous (SC) allograft tumors, each mouse was inoculated in the right flank with 3×10^5 of KPCY 6499c4 tumor cells in 0.1 ml of Matrigel:PBS (1:1). Treatments were started when the average tumor size reached 140 mm^3. Tumor size was measured at two dimensions using a digital caliper, and the tumor volume in mm^3 was calculated using the formula: Volume=((width)2×length)/2. Mice on studies were weighed and tumors were measured 2 times a week.
To generate orthotopic allograft tumors, 5×10^4 KPCY 6499c4 tumor cells in 20 μL PBS/Matrigel mixtures (1:1) were implanted directly into the mouse pancreas through a laparoscopic incision. Treatments were started when the average tumor size reached […]. Body weights were measured and tumor growth was monitored by ultrasound twice weekly.
Tumor-bearing animals were randomized, assigned into groups (n=9-10/group), and treated daily via oral gavage with Vehicle or RMC-7977 (10 mg/kg, q.d.). For SC KPCY study, survival endpoint was defined as: tumor volume reaching 2000 mm^3 or mice showing any clinical signs, including severe ulceration. For orthotopic KPCY study, survival endpoint was defined as (1) mice showing any clinical signs including hunching or fluid in the abdomen, or (2) tumor dimensions exceeding the imaging frame of the ultrasound. Body weights were measured twice a week during the study. Tissue was harvested either at 4 hours or 24 hours after last dose and preserved as previously described (See Xenograft studies section).
To stain tissues collected from the KPCY allograft model, a Biocare IntelliPATH automation system was used, and primary antibodies were detected with the MACH4-HRP-polymer Detection System (Biocare, MRH534). Stained slides were scanned and digitized with a TissueScope LE (Huron Digital Pathology) whole slide scanner at 20× magnification. Image analysis was performed using HALO software from Indica Labs.

Data set [2] has as its system human PDAC xenograft models. As to the kind of experiment: Human PDAC xenograft (CDX/PDX) tumor growth studies. Format: in vivo, mouse. Particulars: 10 mg/kg daily. How it is done: Studies were conducted at the following CROs: GenenDesign (Shanghai, China), Pharmaron (Beijing, China), and Wuxi AppTec (SuZhou, China). All CDX/PDX mouse studies and procedures related to animal handling, care and treatment were conducted in compliance with all applicable regulations and guidelines of the relevant Institutional Animal Care and Use Committee (IACUC). Female BALB/c nude mice and NOD SCID mice 6-8 weeks old from Beijing Vital River/VR Laboratory Animal Co., LTD, Beijing AniKeeper Biotech Co., Ltd., and Shanghai Sino-British SIPPR/BK Laboratory Animal Co., LTD were used for these studies.
In order to generate subcutaneous xenograft tumors each mouse was inoculated at the right flank with tumor cells (2×10^6-1×10^7) in 100-200 μl of media/PBS supplemented with Matrigel (1:1). Treatments were started when the average tumor volume reached 150-250 mm^3 (for tumor growth evaluation) and 400-600 mm^3 (for single dose pharmacokinetic/pharmacodynamic (PK/PD) study). Tumor diameter was measured in two dimensions using a digital caliper, and the tumor volume in mm^3 was calculated using the formula: Volume=((width)2×length)/2. Mice on studies were weighed and tumors were measured 2 times a week.
The human primary cancer xenograft models were generated using fresh tumor fragments obtained from hospitals with informed consent from the patients in accordance with protocols approved by the Hospital Institutional Ethical Committee (IEC). The tumor fragments were serial passaged in BABL/c nude mice and then cryopreserved for further use. For this study, recovered tumor fragments of about 15-30 mm^3 in size from each model were implanted into right flanks of BALB/c nude mice. Treatment started when average tumor volume reached 150-250 mm^3.
To generate orthotopic xenograft tumors, survival surgeries were carried out and 2×10^6 5×10^6 luciferase-expressing tumor cells in 30-50 μL Media/Matrigel mixtures (1:1) were implanted directly into the mouse pancreas. Treatments were started when the tumors produced an average of 50-80×10^7 photon/second as measured by the in vivo imaging system (IVIS). All subsequent tumor measures were also conducted by IVIS. For routine monitoring, mice were injected intraperitoneally with 15 mg/mL (at 5 μL/g BW) of D-Luciferin (Perkin Elmer) and imaged, after which Living Image software (Perkin Elmer) was used to compute regions of interest (ROI) and tumor volumes.
Tumor-bearing animals were randomized and assigned into groups (n=3-10/group). Vehicle or RMC-7977 was administered via oral gavage daily at 10 mg/kg and animals were treated for 21-28 days. Studies were terminated early if tumor burden reached humane endpoint. Body weights were collected twice a week during the study. Means±s.e.m were plotted in the waterfall plots. For the single-dose pharmacokinetic/pharmacodynamic (PK/PD) study, mice were randomized and assigned into groups (n=3-6/dose/timepoint). A single dose of RMC-7977 was administered orally at 10 mg/kg, 25 mg/kg and 50 mg/kg. Tissues (including tumor, colon and skin) were harvested at indicated time points and either fixed in 10% formalin, embedded in Optimal Cutting Temperature (OCT; Sakura, 4583) solution or snap-frozen in LN2 for further analysis. Whole blood was transferred into K2EDTA Microtainer tubes (BD, 365974), incubated for 5 minutes and snap-frozen in LN2.

The mark [3] stands for this setting: orthotopic CDA model, four hours after treatment.

For the molecule `CCn1c(-c2cc(N3CCN(C4CC4)CC3)cnc2[C@H](C)OC)c2c3cc(ccc31)-c1csc(n1)C[C@H](NC(=O)[C@H]1[C@@H]3COC[C@@H]31)C(=O)N1CCC[C@H](N1)C(=O)OCC(C)(C)C2` [RMC-7977], the “affinity for wild type RAS compared to mutant variants” value in the data set on wild type RAS is recorded as “somewhat reduced affinity”. Moreover, the “time of peak of CC3+ apoptotic cells post-dose” value in the data set with CC3+ apoptotic cells (Capan-1 CDX tumors) was 8 h. For the same molecule, in the data set on CC3+ apoptotic cells (Capan-1 CDX tumors, single dose), the “CC3+ apoptotic cells in tumors relative to vehicle” value is listed as “notable increase”. In the data set on CC3+ apoptotic cells (tumor-bearing animals, any timepoint), the “apoptotic cells in colon or skin” value is listed as “few apoptotic cells”. Also, the tumor regressions result in data set [1] (10 mg/kg q.d.) is “without inducing significant regressions”. Besides, in data set [1] (setting [3]), the apoptosis in tumors result was “increased apoptosis” and the “pERK levels in tumors” value is given as “reduced pERK levels”. The tumor growth result in data set [1] (subcutaneous or orthotopic, immunocompetent C57Bl/6 mice, 10 mg/kg q.d.) is on record as “diminished tumor growth”. Further, the overall survival entry in data set [1] (subcutaneous or orthotopic, 10 mg/kg q.d.) was “extended overall survival”. In addition, in data set [2] (21-28 days), the “models with tumor regressions” value is listed as 7/10. Further, in data set [2] (HS-766T CDX), the “response of KRASQ61H mutant HS-766T line in CDX setting” value is “among the most responsive”. In data set [2] (all 10 models), the tolerability entry is “well tolerated”. Further, in data set [2] (all 10 models, 21-28 days), the anti-tumor activity entry is listed as “significant anti-tumor activity”. In data set [2] (treated animals), the “body weight over time” value is given as “stable body weight”.
